Assay results from US9284296B2, “Bipyridine sulfonamide derivatives for the treatment of neurodegenerative diseases or conditions” (AUBERGINE PHARMACEUTICALS LLC, priority 2010, dated 2016).

Tests used:
Type in all cases: cell-based
[1] = test system: SH-SY5Y human neuroblastoma cells; experiment: Protection against hydrogen peroxide-induced cell death; details: for EC50: Homo sapiens, SH-SY5Y cells, 1 h preincubation, 100 μM hydrogen peroxide, 24 h, LDH readout of live cells
Description: The aim of this assay is to determine the neuroprotective effect of the compounds when human neuroblastoma cells are exposed to the oxidative stress induced by hydrogen peroxide, which leads to cell death. Therefore the protective effect of the compounds was measured by monitoring cell survival using a suitable commercial kit (Cytotoxicity Detection Kit, Roche Diagnostics GmbH, Mannheim, Germany) based on the quantification of the lactate dehydrogenase activity obtained from lysates of the remaining live cells with a colorimetric assay yielding absorbance at 492 nm as the final readout.
SH-SY5Y human neuroblastoma cells were seeded into 96-well culture plate at a density of 10,000 cells/well. Cells were preincubated for one hour with different concentrations of the compound at a 1% (v/v) DMSO concentration in an equivolumetric mixture of Minimum Essential Medium (MEM) and Nutrient Mixture HAM F12 supplemented with 10% foetal bovine serum, 100 U/ml penicillin, 100 μg/ml streptomycin, 1 mM each of non-essential aminoacids (commercial preparation from GIBCO, Paisley, UK) and 2 mM L-glutamine. Hydrogen peroxide was then added to reach 100 μM and the incubation was extended for 24 h. Then the medium was removed and live cells, which remained attached to the bottom of the plate, were lysed by incubating them during 5 min with 50 μl of 1% (v/v) Triton X-100 in Krebs-Hepes buffer (10 mM Hepes pH7.3 with 145 mM NaCl, 5.5 mM KCl, 1 mM MgCl2, 2 mM CaCl2 and 1 mM glucose). This lysate was used to measure LDH activity using the commercial kit according to the manufacturer's instructions. In the culture plate several wells were included as a control of cell death, in these wells the cells were preincubated with 1% (v/v) DMSO before hydrogen peroxide addition. Likewise, several wells were included as control for full cell survival, in these wells the addition of H2O2 was omitted. The absorbance of each tested sample was normalized to that of the control wells, so that for every compound concentration the percentage of protective effect was calculated with the following equation:
[formula] where “S” is the absorbance of the sample being considered, “E” is the average absorbance of wells used as control of full cell survival and “B” is the average absorbance of wells used as control of cell death. The values obtained at every compound concentration were finally used to calculate the EC50 (i.e., the concentration causing 50% of protective effect) of the tested compound. For that purpose the data were fitted to a classical 4-parameters isotherm equation using the nonlinear regression function of GraphPad™ Prism 5.0 (GraphPad Software Inc.), such equation is described below:
[formula] where “L” is the lower asymptote of the theoretical sigmoidal curve, “H” is the higher asymptote, “C” is the concentration of compound and “n” is the Hill coefficient.

[2] = test system: secretion of soluble amyloid precursor protein-α (sAPPα); experiment: Stimulation of sAPPα secretion (CHO7w cells stably transfected with human APP, AlphaLISA); details: for EC50 / Emax: Homo sapiens, CHO-7W, CHO7w cells, 24 h incubation, range stated for the listed compounds together; for Emax: read-out: maximum effect (sAPPα secretion)
Description: The effect of the compounds on the stimulation of the secretion of soluble amyloid precursor protein-α (sAPPα) was determined by measuring the levels of this protein in cell supernatants after incubating the cells with several concentrations of the tested compound. A CHO7w cell line, stably transfected with human APP, was used. Cells were dispensed in 96-well culture plates (5,000 cells/well) and grown in DMEM supplemented with 2% (v/v) foetal bovine serum, 100 U/ml penicillin, 100 μg/ml streptomycin, 2 mM L-glutamine and 200 μg/ml G418 in the presence of several concentrations of the tested compound which had been previously dissolved in DMSO (1% (v/v) DMSO final concentration). After 24 h of incubation 5 μl of the culture supernatants were withdrawn and their sAPPα. concentration was measured with a commercial kit (AlphaLISA® Amyloid Precursor Protein-α Secreted Research kit, PerkinElmer, Waltham, Mass., USA) following manufacturer's instructions. In the culture plate several wells were included as a control for background sAPPα secretion, in these wells the cells were incubated with 1% (v/v) DMSO. The results obtained for each tested sample were normalized by using the following equation:
[formula] where “S” is the sAPPα concentration of the sample being considered, “B” is the average sAPPα concentration of wells used for background secretion and “M” is the sAPPα concentration of wells yielding the highest value. These normalized values obtained at every compound concentration were finally used to calculate the EC50 of the tested compound fitting them to a 4-parameters isotherm equation as already described. The average EC50s ranges are reported in Table 4 together with the maximum observed effect (and the concentration at which this effect was reached), this latter value was calculated for each compound according to the following equation:
[formula] with “M” and “B” as defined above.

[3] = test system: secretion of amyloid peptide β1-40 (Aβ1-40); experiment: Inhibition of β-amyloid secretion (CHO7w cells stably transfected with human APP, ELISA); details: CHO-7W, 24 h incubation, range stated for the listed compounds together
Description: The inhibition caused by the compounds on the secretion of amyloid peptide β1-40 (Aβ1-40) was determined by measuring the levels of this peptide in cell supernatants after incubating the cells with several concentrations of the tested compound. A CHO7w cell line, stably transfected with human amyloid precursor protein (APP), was used. Cells were dispensed in 96-well culture plates (5,000 cells/well) and grown in DMEM supplemented with 2% (v/v) foetal bovine serum, 100 U/ml penicillin, 100 μg/ml streptomycin, 2 mM L-glutamine and 200 μg/ml G418 in the presence of several concentrations of the tested compound which had been previously dissolved in DMSO (1% (v/v) DMSO final concentration). After a 24 h incubation the amount of Aβ1-40 secreted to the medium was measured with an ELISA-based commercial kit (Human Amyloid β-40 ELISA High Sensitivity Kit, Millipore, Billerica, Mass., USA) using absorbance at 450 nm as the final readout. In the culture plate several wells were included as a control for lack of Aβ1-40 secretion, in these wells the cells were incubated in the presence of 16% (v/v) DMSO to inhibit cell growth therefore abolishing Aβ1-40 secretion. Likewise, several wells were also included as a control for full Aβ1-40 secretion, in these wells the cells were grown in the presence of 1% (v/v) DMSO. The absorbance of each tested sample was normalized to that of the control wells, so that for every compound concentration the percentage of inhibition was calculated with the following equation:
[formula] where “S” is the absorbance of the sample being considered, “E” is the average absorbance of wells lacking Aβ1-40 secretion and “B” is the average absorbance of wells with full Aβ1-40 secretion. The inhibition values obtained at every compound concentration were fitted to a 4-parameters isotherm equation, as described above, to calculate the […] (i.e., the concentration causing 50% of inhibition of Ab1-40 secretion).

Row | EC50 [2] | IC50 [3] | Compound | EC50 [1] | Emax [2] | rank of activity among compounds assayed (protection against hydrogen peroxide) ([1]; comparison within Table 2) | rank of concentration at which maximum effect was reached (sAPPα secretion) ([2]; comparison among tested compounds)
1 | 500 to 11000 nM | – | COc1cc(CNS(=O)(=O)c2cccc(F)c2)nc(-c2ccccn2)c1 [Compound 12, 3-Fluoro-N-(4-methoxy-[2,2′]bipyridinyl-6-ylmethyl)-benzenesulfonamide] | 1060 nM | 250 to 500% | – | –
2 | 500 to 11000 nM | – | COc1cc(CNS(=O)(=O)c2ccc(F)cc2)nc(-c2ccccn2)c1 [Compound 11, 4-Fluoro-N-(4-methoxy-[2,2′]bipyridinyl-6-ylmethyl)-benzenesulfonamide] | 1300 nM | 250 to 500% | – | –
3 | 500 to 11000 nM | – | COc1cc(CNS(=O)(=O)c2ccc(Br)cc2)nc(-c2ccccn2)c1 [Compound 16, 4-Bromo-N-(4-methoxy-[2,2′]bipyridinyl-6-ylmethyl)-benzenesulfonamide] | 3200 nM | 250 to 500% | – | –
4 | 500 to 11000 nM | – | COc1cc(CNS(=O)(=O)c2ccc(C#N)cc2)nc(-c2ccccn2)c1 [Compound 13, 4-Cyano-N-(4-methoxy-[2,2′]bipyridinyl-6-ylmethyl)-benzenesulfonamide] | 1500 nM | 250 to 500% | – | –
5 | 500 to 11000 nM | 300 to 42000 nM | COc1cc(CNS(=O)(=O)c2cc(F)cc(F)c2)nc(-c2ccccn2)c1 [Compound 10] | 1170 nM | 250 to 500% | – | –
6 | – | 300 to 42000 nM | COc1cc(CN(Cc2cc(OC)cc(-c3ccccn3)n2)S(=O)(=O)c2ccc(Cl)s2)nc(-c2ccccn2)c1 [Compound 27] | 3520 nM | – | – | –
7 | 500 to 11000 nM | – | COc1cc(CNS(=O)(=O)c2ccc(C(C)=O)cc2)nc(-c2ccccn2)c1 [Compound 9] | 6100 nM | 250 to 500% | – | –
8 | 500 to 11000 nM | 300 to 42000 nM | COc1cc(CNS(=O)(=O)c2cc(Cl)sc2Cl)nc(-c2ccccn2)c1 [Compound 19, 2,5-Dichloro-thiophene-3-sulfonic acid (4-methoxy-[2,2′]bipyridinyl-6-ylmethyl)-amide] | 1300 nM | 250 to 500% | – | –
9 | 500 to 11000 nM | – | COc1cc(CNS(=O)(=O)c2cccs2)nc(-c2ccccn2)c1 [Compound 8] | 90 nM | 250 to 500% | most active compound | maximum effect at the lowest concentration
10 | 500 to 11000 nM | – | COc1cc(CNS(=O)(=O)c2ccc(F)c(C#N)c2)nc(-c2ccccn2)c1 [Compound 14, 3-Cyano-4-fluoro-N-(4-methoxy-[2,2′]bipyridinyl-6-ylmethyl)-benzenesulfonamide] | 1600 nM | 250 to 500% | – | –
11 | – | 300 to 42000 nM | COc1cc(CN(S(=O)(=O)c2ccc(Cl)s2)S(=O)(=O)c2ccc(Cl)s2)nc(-c2ccccn2)c1 [Compound 26] | 4600 nM | – | – | –
12 | – | 300 to 42000 nM | COc1cc(CNS(=O)(=O)c2sc(Cl)nc2Cl)nc(-c2ccccn2)c1 [Compound 101] | 230 nM | – | – | –
13 | 500 to 11000 nM | – | CCN(CC)CCOc1cc(CNS(=O)(=O)c2cccs2)nc(-c2ccccn2)c1 [Compound 28, Thiophene-2-sulfonic acid [4-(2-diethylamino-ethoxy)-[2,2′]bipyridinyl-6-ylmethyl]-amide] | 1160 nM | 250 to 500% | – | –
14 | – | 300 to 42000 nM | COc1cc(CNS(=O)(=O)c2ccc(C)s2)nc(-c2ccccn2)c1 [Compound 24, 5-Methyl-thiophene-2-sulfonic acid (4-methoxy-[2,2′]bipyridinyl-6-ylmethyl)-amide] | 3460 nM | – | – | –
15 | – | 300 to 42000 nM | COc1cc(CNS(=O)(=O)c2cc(Cl)ccc2Cl)nc(-c2ccccn2)c1 [Compound 100] | 1040 nM | – | – | –
16 | – | 300 to 42000 nM | COc1cc(CNS(=O)(=O)c2cccc(Cl)c2F)nc(-c2ccccn2)c1 [Compound 56] | 1060 nM | – | – | –
17 | 500 to 11000 nM | – | COc1cc(CNS(=O)(=O)c2ccccc2)nc(-c2ccccn2)c1 [Compound 6, N-(4-Methoxy-[2,2′]bipyridinyl-6-ylmethyl)-benzenesulfonamide] | 1580 nM | 250 to 500% | – | –
18 | 500 to 11000 nM | – | COc1cc(CNS(=O)(=O)c2ccc(Br)s2)nc(-c2ccccn2)c1 [Compound 18, 5-Bromo-thiophene-2-sulfonic acid (4-methoxy-[2,2′]bipyridinyl-6-ylmethyl)-amide] | 1880 nM | 250 to 500% | – | –
19 | 500 to 11000 nM | 300 to 42000 nM | CCN(CC)CCOc1cc(CNS(=O)(=O)c2ccc(Cl)s2)nc(-c2ccccn2)c1 [Compound 30, 5-Chloro-thiophene-2-sulfonic acid [4-(2-diethylamino-ethoxy)-[2,2′]bipyridinyl-6-ylmethyl]-amide] | 290 nM | 250 to 500% | – | –
20 | 500 to 11000 nM | 300 to 42000 nM | CS(=O)(=O)c1cc(CNS(=O)(=O)c2ccc(Cl)s2)nc(-c2ccccn2)c1 [Compound 33, 5-Chloro-thiophene-2-sulfonic acid (4-methanesulfonyl-[2,2′]bipyridinyl-6-ylmethyl)-amide] | 1020 nM | 250 to 500% | – | –
21 | 500 to 11000 nM | – | CCN(CC)CCOc1cc(CNS(=O)(=O)c2ccc(C)s2)nc(-c2ccccn2)c1 [Compound 32, 5-Methyl-thiophene-2-sulfonic acid [4-(2-diethylamino-ethoxy)-[2,2′]bipyridinyl-6-ylmethyl]-amide] | 550 nM | 250 to 500% | – | –
22 | – | 300 to 42000 nM | COc1cc(CNS(=O)(=O)CC(F)(F)F)nc(-c2ccccn2)c1 [Compound 82] | 500 nM | – | – | –
